Measurements from patent publication US20150197492A1, “NOVEL INDENO[1,2-c]QUINOLIN-11-ONE DERIVATIVES, PREPARATION METHOD AND APPLICATION THEREOF” (National Defense Medical Center, priority 2014, published 2015).

Legend:
Experiment in all cases: cells
Format in all cases: cell-based
BT-549 = system: BT-549
RXF 393 = system: RXF 393
RPMI-8226 = system: RPMI-8226
A549/ATCC = system: A549/ATCC
HL-60 (TB) = system: HL-60 (TB)
TK-10 = TK-10 (Renal Cancer), 10 μM, 48 hours
HCC-2998 = system: HCC-2998
UACC-257 = system: UACC-257
OVCAR-3 = system: OVCAR-3
MOLT-4 = system: MOLT-4
MDA-MB-435 = system: MDA-MB-435
UO-31 = system: UO-31
HCT-116 = system: HCT-116
OVCAR-5 = system: OVCAR-5
CAKI-1 = system: CAKI-1
SK-MEL-5 = conditions: Homo sapiens; Melanoma SK-MEL-5
[1] = Homo sapiens, Non-Small Cell Lung Cancer A549/ATCC
[2] = Homo sapiens, Colon Cancer HCT-116

In the case of O=C1c2cc(Cl)ccc2-c2c(N3CCNCC3)nc3ccccc3c21 [SJ-10, 9-Chloro-6-(piperazin-1-yl)-11H-indeno[1,2-c]quinolin-11-one], the growth percentage (BT-549; BT-549 (Breast Cancer), 10 μM, 48 hours) is reported as 58.35%, the TGI (BT-549; Breast Cancer BT-549) is reported as >100 µM and the GI50 (BT-549; Homo sapiens, Breast Cancer BT-549) is reported as 10.6 µM. For the same compound, the CC50 (BT-549; Homo sapiens, Breast Cancer BT-549, read-out: LC50 (the source's name)) was > 100 µM, the GI50 (RXF 393; Homo sapiens, Renal Cancer RXF 393) was 4.55 µM and the CC50 (RXF 393; Homo sapiens, Renal Cancer RXF 393, read-out: LC50 (the source's name)) was > 100 µM. For the same compound, the growth percentage (RXF 393; RXF 393 (Renal Cancer), 10 μM, 48 hours) was 20.51%, the TGI (RXF 393; Renal Cancer RXF 393) was >100 µM and the GI50 (RPMI-8226; Homo sapiens, Leukemia RPMI-8226) was 7.48 µM. For the same compound, the CC50 (RPMI-8226; Homo sapiens, Leukemia RPMI-8226, read-out: LC50 (the source's name)) was > 100 µM, the TGI (RPMI-8226; Leukemia RPMI-8226) was >100 µM and the growth percentage (RPMI-8226; RPMI-8226 (Leukemia), 10 μM, 48 hours) was -43.57%. The growth percentage (A549/ATCC; A549/ATCC (Non-Small Cell Lung Cancer), 10 μM, 48 hours) was 18.70%, the GI50 (A549/ATCC; [1]) was 4.87 µM and the LC50 (50% lethal concentration) (A549/ATCC; [1]) was > 100 µM. The TGI (A549/ATCC; Non-Small Cell Lung Cancer A549/ATCC) was >100 µM, the growth percentage (HL-60 (TB); HL-60 (TB) (Leukemia), 10 μM, 48 hours) was -38.36% and the GI50 (HL-60 (TB); Homo sapiens, Leukemia HL-60(TB)) was 36.9 µM. The CC50 (HL-60 (TB); Homo sapiens, Leukemia HL-60(TB), read-out: LC50 (the source's name)) was > 100 µM, the TGI (HL-60 (TB); Leukemia HL-60(TB)) was >100 µM and the growth percentage (TK-10) was 47.07%. The TGI (HCC-2998; Colon Cancer HCC-2998) was >100 µM, the growth percentage (HCC-2998; HCC-2998 (Colon Cancer), 10 μM, 48 hours) was -55.83% and the GI50 (HCC-2998; Homo sapiens, Colon Cancer HCC-2998) was 30.9 µM. The CC50 (HCC-2998; Homo sapiens, Colon Cancer HCC-2998, read-out: LC50 (the source's name)) was > 100 µM, the GI50 (UACC-257; Homo sapiens, Melanoma UACC-257) was 35.1 µM and the CC50 (UACC-257; Homo sapiens, Melanoma UACC-257, read-out: LC50 (the source's name)) was > 100 µM. For the same compound, the TGI (UACC-257; Melanoma UACC-257) was >100 µM, the growth percentage (UACC-257; UACC-257 (Melanoma), 10 μM, 48 hours) was -39.24% and the GI50 (OVCAR-3; Homo sapiens, Ovarian Cancer OVCAR-3) was 12.8 µM. For the same compound, the CC50 (OVCAR-3; Homo sapiens, Ovarian Cancer OVCAR-3, read-out: LC50 (the source's name)) was > 100 µM, the growth percentage (OVCAR-3; OVCAR-3 (Ovarian Cancer), 10 μM, 48 hours) was 22.86% and the TGI (OVCAR-3; Ovarian Cancer OVCAR-3) was >100 µM. For the same compound, the GI50 (MOLT-4; Homo sapiens, Leukemia MOLT-4) was 4.41 µM, the LC50 (concentration killing 50% of cells) (MOLT-4; Homo sapiens, Leukemia MOLT-4) was > 100 µM and the TGI (MOLT-4; Leukemia MOLT-4) was >100 µM. The growth percentage (MOLT-4; MOLT-4 (Leukemia), 10 μM, 48 hours) was -43.22%, the GI50 (MDA-MB-435; Homo sapiens, Melanoma MDA-MB-435) was 7.01 µM and the CC50 (MDA-MB-435; Homo sapiens, Melanoma MDA-MB-435, read-out: LC50 (the source's name)) was > 100 µM. For the same compound, the growth percentage (MDA-MB-435; MDA-MB-435 (Melanoma), 10 μM, 48 hours) was -6.57%, the TGI (MDA-MB-435; Melanoma MDA-MB-435) was >100 µM and the GI50 (UO-31; Homo sapiens, Renal Cancer UO-31) was 2.83 µM. The CC50 (UO-31; Homo sapiens, Renal Cancer UO-31, read-out: LC50 (the source's name)) was > 100 µM, the TGI (UO-31; Renal Cancer UO-31) was >100 µM and the growth percentage (UO-31; UO-31 (Renal Cancer), 10 μM, 48 hours) was -40.61%. The TGI (HCT-116; Colon Cancer HCT-116) was >100 µM, the growth percentage (HCT-116; HCT-116 (Colon Cancer), 10 μM, 48 hours) was -83.19% and the GI50 (HCT-116; [2]) was 5.42 µM. For the same compound, the LC50 (50% lethal concentration) (HCT-116; [2]) was > 100 µM, the GI50 (OVCAR-5; Homo sapiens, Ovarian Cancer OVCAR-5) was 34.5 µM and the CC50 (OVCAR-5; Homo sapiens, Ovarian Cancer OVCAR-5, read-out: LC50 (the source's name)) was > 100 µM. For the same compound, the growth percentage (OVCAR-5; OVCAR-5 (Ovarian Cancer), 10 μM, 48 hours) was 39.14%, the TGI (OVCAR-5; Ovarian Cancer OVCAR-5) was >100 µM and the growth percentage (CAKI-1; CAKI-1 (Renal Cancer), 10 μM, 48 hours) was 17.84%. For the same compound, the GI50 (CAKI-1; Homo sapiens, Renal Cancer CAKI-1) was 2.52 µM, the CC50 (CAKI-1; Homo sapiens, Renal Cancer CAKI-1, read-out: LC50 (the source's name)) was > 100 µM and the TGI (CAKI-1; Renal Cancer CAKI-1) was >100 µM. The GI50 (SK-MEL-5) was 4.1 µM.
